Experimental data: US7381739B2, “2,4-substituted indoles and methods of use” (Roche Palo Alto LLC, priority 2002, dated 2008)

Target: T1, recombinant human 5-HT6 receptor (Homo sapiens, UniProt P50406)
T1 construct: expressed in transfected cells
Assay: in vitro radioligand binding, [3H]LSD competition in HEK293 cell membranes
Details: not given
Protocol: The binding activity of compounds of this invention in vitro was determined as follows. Duplicate determinations of ligand affinity are made by competing for binding of [^3H]LSD in cell membranes derived from HEK293 cells stably expressing recombinant human 5-HT6 receptor.
All determinations were made in assay buffer containing 50 mM Tris-HCl, 10 mM MgSO4, 0.5 mM EDTA, 1 mM ascorbic acid, pH 7.4 at 37° C., in a 250 microliter reaction volume. Assay tubes containing [^3H] LSD (5 nM), competing ligand, and membrane were incubated in a shaking water bath for 60 min. at 37° C., filtered onto Packard GF-B plates (pre-soaked with 0.3% PEI) using a Packard 96 well cell harvester and washed 3 times in ice cold 50 mM Tris-HCl. Bound [^3H] LSD was determined as radioactive counts per minute using Packard TopCount.
Displacement of [3H]LSD from the binding sites was quantified by fitting concentration-binding data to a 4-parameter logistic equation:
[formula] where Hill is the Hill slope, [ligand] is the concentration of competing radioligand and IC50 is the concentration of radioligand producing half-maximal specific binding of radioligand. The specific binding window is the difference between the Bmax and the basal parameters.

T1 sequence (P50406 whole entry): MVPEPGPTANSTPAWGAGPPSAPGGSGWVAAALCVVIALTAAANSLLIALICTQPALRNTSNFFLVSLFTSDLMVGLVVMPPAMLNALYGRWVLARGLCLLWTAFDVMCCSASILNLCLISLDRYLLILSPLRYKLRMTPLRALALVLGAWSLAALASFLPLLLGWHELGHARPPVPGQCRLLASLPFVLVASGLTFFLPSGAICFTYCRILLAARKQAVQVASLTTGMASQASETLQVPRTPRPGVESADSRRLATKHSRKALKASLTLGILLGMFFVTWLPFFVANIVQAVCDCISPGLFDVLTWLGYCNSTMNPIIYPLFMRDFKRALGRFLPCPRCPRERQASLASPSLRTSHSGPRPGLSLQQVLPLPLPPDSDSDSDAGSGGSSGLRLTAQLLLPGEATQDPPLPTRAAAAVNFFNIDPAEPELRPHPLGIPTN

Going from `Cn1c(S(=O)(=O)c2ccccc2)cc2c(N3CCNCC3)cccc21` [Compound 5, 2-Benzenesulfonyl-1-methyl-4-piperazin-1-yl-1H-indole] to `Cn1c(S(=O)(=O)c2cccc(Br)c2)cc2c(N3CCNCC3)cccc21` [Compound 14, 2-(3-Bromo-benzenesulfonyl)-1-methyl-4-piperazin-1-yl-1H-indole], the Ki rises from 0.2 nM to 0.501 nM (2.5-fold). The first binds more tightly here.

Same assay, conditions: [3H]LSD (5 nM) displacement, membranes of HEK293 cells stably expressing recombinant human 5-HT6 receptor, pH 7.4, 37° C., 60 min; read-out: pKi (converted)

`CN1CCN(c2cccc3[nH]c(S(=O)(=O)c4ccccc4)cc23)CC1` [Compound 2, 2-Benzenesulfonyl-4-(4-methyl-piperazin-1-yl)-1H-indole] and `CN1CCN(c2cccc3[nH]c(S(=O)(=O)c4ccccc4F)cc23)CC1` [Compound 12, 2-(2-Fluoro-benzenesulfonyl)-4-(4-methyl-piperazin-1-yl)-1H-indole] are the same in Ki: 0.126 nM for the first, 0.126 nM for the second.

`CC1CN(c2cccc3[nH]c(S(=O)(=O)c4ccccc4)cc23)CC(C)N1` (stereo not drawn) [Compound 9, 2-Benzenesulfonyl-4-(3,5-dimethyl-piperazin-1-yl)-1H-indole] and `O=S(=O)(c1ccccc1)c1cc2c(C3CCNCC3)cccc2[nH]1` [Compound 15, 2-Benzenesulfonyl-4-piperidin-4-yl-1H-indole] are within 1.5-fold of each other in Ki: 0.794 nM for the first, 0.631 nM for the second.
